“Also recorded” adds a separate entry of the source.
Legend:
TNFα mRNA = TNFα mRNA expression in muscularis externae of intestinal grafts (real time RT-PCR); assay type: in vivo, rat; settings: SITx recipients treated with CO, 4 hours after reperfusion
Experimental: The effects of inhalation of CO on transplant-induced pro-inflammatory and anti-inflammatory gene expression was assessed in muscularis extracts by RT-PCR. Muscularis extemae was collected from normal intestine and transplanted grafts 4 hours postoperatively and snap frozen in liquid nitrogen. This time point falls within the range of maximum inflammatory mediator expression that occurs between 3 and 6 hours following abdominal incision. Total RNA extraction was performed using the guanidium-thiocyanate phenol-chloroform extraction method as described previously (Eskandari et al., Am. J. Clin. Pathol. 75(3):367-370 (1997)). RNA pellets were resuspended in RNA-secure resuspension solution (Ambion Inc., Austin, Tex.), followed by removal of potentially contaminating DNA by treatment with DNase I (DNA-Free Kit, Ambion Inc., Austin, Tex.). Equal aliquots (5 μg) of total RNA from each sample were quantified by spectrophotometry (wavelength […]) and aliquoted at a concentration of 40 ng/μl. Peak mRNA expression was quantified in duplicate by SYBR Green two-step, real-time RT-PCR. […] Real-time PCR data were plotted as the ΔRn, fluorescence signal versus the cycle number. […] Quantification of mRNA expression was normalized to GAPDH and calculated relative to control using the comparative CT method (Schmittgen et al., J. Biochem. Biophys. Methods 46(1-2):69-8 (2000)). […]

HO-1 mRNA = HO-1 mRNA in muscularis after IM (real time RT-PCR); assay type: in vivo, mouse
Experimental: Pro- and anti-inflammatory gene expression was determined by real time RT-PCR. The small intestinal muscularis externa was collected at 4 time points (3, 6, 12, and 24 hr) postoperatively and snap frozen in liquid nitrogen. Total RNA extraction was performed using the guanidium-thiocyanate phenol-chloroform extraction method as described in Eskandari et al. (Id.) RNA pellets were resuspended in RNA-secure resuspension solution (Ambion Inc., Austin, Tex.), followed by removal of potential contaminating DNA by treatment with DNase I (DNA-Free Kit, Ambion Inc., Austin, Tex.). Equal aliquots (5 μg) of total RNA from each sample were quantified by spectrophotometry (wavelength […]). Peak mRNA expression was quantified in duplicate by SYBR Green two-step, real-time RT-PCR. β-actin was used as the endogenous reference. Aliquoted RNA (40 ng) was subjected to first-strand complementary DNA (cDNA) synthesis using random hexamers (PE applied Biosystems, Foster City, Calif.) and Super Script II (Life Technologies, Rockville, Md.). Primers were taken from the literature or designed according to published sequences (Table 3). PCR reaction mixture was prepared using SYBR Green PCR Core Reagents (PE Applied Biosystems). Each sample was estimated in duplicate using the conditions recommended by the manufacturer. Real-time PCR data were plotted as the ΔRn fluorescence signal versus the cycle number. An arbitrary threshold was set to the midlinear portion of the log ΔRn cycle plot. The threshold cycle (CT) is defined as the cycle number at which the ΔRn, crosses this threshold. Quantification of mRNA expression was normalized to β-actin and calculated relative to control using the comparative CT method.
To exclude PCR amplification of contaminating genomic DNA, RT-negative controls (samples containing RNA which was not reverse transcribed) were included in each PCR reaction. Melting curve analyses were performed for each reaction to ensure amplification of specific product. […] PCR amplification efficiency of each target cDNA was measured by determining the colinearity of serial dilutions. […]

IL-1β mRNA = IL-1β mRNA in muscularis after IM (real time RT-PCR); assay type: in vivo, mouse; settings: IM + CO vs IM, 6 hr
Experimental: Pro- and anti-inflammatory gene expression was determined by real time RT-PCR. The small intestinal muscularis externa was collected at 4 time points (3, 6, 12, and 24 hr) postoperatively and snap frozen in liquid nitrogen. Total RNA extraction was performed using the guanidium-thiocyanate phenol-chloroform extraction method as described in Eskandari et al. (Id.) RNA pellets were resuspended in RNA-secure resuspension solution (Ambion Inc., Austin, Tex.), followed by removal of potential contaminating DNA by treatment with DNase I (DNA-Free Kit, Ambion Inc., Austin, Tex.). Equal aliquots (5 μg) of total RNA from each sample were quantified by spectrophotometry (wavelength […]). Peak mRNA expression was quantified in duplicate by SYBR Green two-step, real-time RT-PCR. β-actin was used as the endogenous reference. […] Real-time PCR data were plotted as the ΔRn fluorescence signal versus the cycle number. […] Quantification of mRNA expression was normalized to β-actin and calculated relative to control using the comparative CT method.
To exclude PCR amplification of contaminating genomic DNA, RT-negative controls (samples containing RNA which was not reverse transcribed) were included in each PCR reaction. […] PCR amplification efficiency of each target cDNA was measured by determining the colinearity of serial dilutions. […]

Structure (SMILES): [C-]#[O+] [CO, carbon monoxide]
- TNFα expression (TNFα mRNA): unchanged
- HO-1 mRNA expression (HO-1 mRNA; IM + CO vs IM, 3 hr but not 6 hr postoperatively): significantly increased
- HO-1 gene expression, increase over manipulation alone (HO-1 mRNA; IM + CO vs IM, 3 hr postoperatively): 300%
- HO-1 gene expression (HO-1 mRNA; unoperated control mice, CO alone, 6 hr time point): small, though significant, increase; also recorded: increased
- peak IL-1β mRNA expression (IL-1β mRNA): significantly inhibited
